Results taken from patent US9422331B2, “2-oxo-2,3,4,5-tetrahydro-1 H-benzo[B]diazepines and their use in the treatment of cancer” (Hoffmann-La Roche Inc., priority 2012, dated 2016).
pIC50: −log10 of the molar value. Where a name gives a salt, the structure may show the parent alone. Read-outs that look alike come from different tables or passages of the source.

Columns and labels:
BIR2 domain of XIAP = BIR2 domain of XIAP (Homo sapiens (Human), UniProt P98170, C202A/C213G); assay: TR-FRET assay for BIR2: inhibition of binding of XIAP BIR2 domain to Peptide A (SMAC-derived peptide)
Sequence of BIR2 domain of XIAP (P98170 124-240 C202A/C213G): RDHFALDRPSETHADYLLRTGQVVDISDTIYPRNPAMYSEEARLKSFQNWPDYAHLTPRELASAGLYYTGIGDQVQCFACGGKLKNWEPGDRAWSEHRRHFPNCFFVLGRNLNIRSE

BIR3 domain of XIAP = BIR3 domain of XIAP (Homo sapiens (Human), UniProt P98170); assay: TR-FRET assay for BIR3: inhibition of binding of XIAP BIR3 domain to Peptide A (SMAC-derived peptide)
Sequence of BIR3 domain of XIAP (P98170 241-356): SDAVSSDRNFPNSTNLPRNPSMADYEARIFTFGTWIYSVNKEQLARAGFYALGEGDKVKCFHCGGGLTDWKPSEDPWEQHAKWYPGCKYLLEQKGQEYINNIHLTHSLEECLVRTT

[1] = 6x Histidine-tagged BIR2 domain (amino acids 124-240 of XIAP), 10 nM, 20 nM peptide AVPIAQKSEK-(ε-biotin)-OH, TR-FRET
[2] = 6x Histidine-tagged BIR3 domain (amino acids 241-356 of XIAP), 10 nM, 20 nM peptide AVPIAQKSEK-(ε-biotin)-OH, TR-FRET

SMILES | pIC50 (BIR2 domain of XIAP; [1]) | pIC50 (BIR3 domain of XIAP; [2]) | pIC50 (BIR2 domain of XIAP) | pIC50 (BIR3 domain of XIAP)
CN[C@@H](C)C(=O)N[C@@H]1C(=O)N(Cc2nn(-c3ccccc3C#N)c3ccccc23)c2ccccc2N(C(=O)c2ccc(C(C)=O)cc2)[C@H]1C [Example 3, (S)-N-{(2S,3S)-1-(4-acetyl-benzoyl)-5-[1-(2-cyano-phenyl)-1H-indazol-3-ylmethyl]-2-methyl-4-oxo-2,3,4,5-tetrahydro-1H-benzo[b][1,4]diazepin-3-yl}-2-methylamino-propionamide hydrochloride] | 7.92 | < 4.26 | – | –
CN[C@@H](C)C(=O)N[C@@H]1C(=O)N(Cc2ccnc3ccccc23)c2ccccc2N(C(=O)CS(C)(=O)=O)[C@H]1C [Example 16, (S)-N-((2S,3S)-2-Methyl-1-(2-(methylsulfonyl)acetyl)-4-oxo-5-(quinolin-4-ylmethyl)-2,3,4,5-tetrahydro-1H-benzo[b][1,4]diazepin-3-yl)-2-(methylamino)propanamide hydrochloride] | – | – | 6.75 | < 4.26
CN[C@@H](C)C(=O)N[C@@H]1C(=O)N(Cc2nn(-c3ccccc3C#N)c3ccccc23)c2ccccc2N(C(C)=O)[C@H]1C [Example 19, (S)-N-((2S,3S)-1-Acetyl-5-((1-(2-cyanophenyl)-1H-indazol-3-yl)methyl)-2-methyl-4-oxo-2,3,4,5-tetrahydro-1H-benzo[b][1,4]diazepin-3-yl)-2-(methylamino)propanamide] | 7.36 | < 4.26 | – | –
CN[C@@H](C)C(=O)N[C@@H]1C(=O)N(Cc2c(C)cnc3ccccc23)c2ccccc2N(C(C)=O)[C@H]1C [Example 20, (S)-N-((2S,3S)-1-Acetyl-2-methyl-5-((3-methylquinolin-4-yl)methyl)-4-oxo-2,3,4,5-tetrahydro-1H-benzo[b][1,4]diazepin-3-yl)-2-(methylamino)propanamide dihydrochloride] | – | – | 7.26 | < 4.26
CCN[C@@H](C)C(=O)N[C@@H]1C(=O)N(Cc2c(C)ccc3ccccc23)c2ccc(C#N)cc2N(C(=O)CS(C)(=O)=O)[C@H]1C [Example 28, (S)-N-((3S,4S)-7-Cyano-4-methyl-1-((2-methylnaphthalen-1-yl)methyl)-5-(2-(methylsulfonyl)acetyl)-2-oxo-2,3,4,5-tetrahydro-1H-benzo[b][1,4]diazepin-3-yl)-2-(ethylamino)propanamide hydrochloride] | – | – | 7.12 | < 4.26
CN[C@@H](C)C(=O)N[C@@H]1C(=O)N(Cc2cc(=O)oc3cc(Cl)ccc23)c2ccccc2N(C(=O)CS(C)(=O)=O)[C@H]1C [Example 40, (S)-N-((3S,4S)-1-((7-chloro-2-oxo-2H-chromen-4-yl)methyl)-4-methyl-5-(2-(methylsulfonyl)acetyl)-2-oxo-2,3,4,5-tetrahydro-1H-benzo[b][1,4]diazepin-3-yl)-2-(methylamino)propanamide 2,2,2-trifluoroacetate] | – | – | 6.45 | < 4.26
CN[C@@H](C)C(=O)N[C@@H]1C(=O)N(Cc2noc3cc(Br)ccc23)c2ccccc2N(C(=O)CS(C)(=O)=O)[C@H]1C [Example 41, (S)-N-((3S,4S)-1-((6-bromobenzo[d]isoxazol-3-yl)methyl)-4-methyl-5-(2-(methylsulfonyl)acetyl)-2-oxo-2,3,4,5-tetrahydro-1H-benzo[b][1,4]diazepin-3-yl)-2-(methylamino)propanamide 2,2,2-trifluoroacetate] | – | – | 6.38 | < 4.26
CN[C@@H](C)C(=O)N[C@@H]1C(=O)N(Cc2nn(-c3ccccc3C#N)c3ccccc23)c2ccc(C#N)cc2N(C(=O)CS(C)(=O)=O)[C@H]1C [Example 53, (S)-N-((3S,4S)-7-cyano-1-((1-(2-cyanophenyl)-1H-indazol-3-yl)methyl)-4-methyl-5-(2-(methylsulfonyl)acetyl)-2-oxo-2,3,4,5-tetrahydro-1H-benzo[b][1,4]diazepin-3-yl)-2-(methylamino)propanamide 2,2,2-trifluoroacetate] | – | – | 7.48 | < 4.26
